Data on 21 compounds can be found in US10654834B2 (Venenum Biodesign, LLC, priority 2016, dated 2020).

One data set deals with T1, human TGR5 receptor (Homo sapiens, UniProt Q8TDU6).
T1 construct: host or cells: CHO-K1 (hTGR5-CHO)
T1 sequence (Q8TDU6 1-330): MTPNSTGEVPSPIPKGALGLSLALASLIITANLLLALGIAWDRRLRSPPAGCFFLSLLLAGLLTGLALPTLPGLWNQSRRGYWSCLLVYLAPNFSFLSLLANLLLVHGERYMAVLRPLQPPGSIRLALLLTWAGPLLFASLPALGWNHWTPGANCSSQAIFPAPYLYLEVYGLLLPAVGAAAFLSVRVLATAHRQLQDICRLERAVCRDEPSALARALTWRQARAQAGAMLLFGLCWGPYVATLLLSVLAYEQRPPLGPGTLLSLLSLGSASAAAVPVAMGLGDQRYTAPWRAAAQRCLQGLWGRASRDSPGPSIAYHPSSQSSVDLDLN
Description: Human TGR5 cAMP production assay (hTGR5-CHO cells, DiscoveRx cAMP XS+ kit). Type of data set: cell-based. The following applies: luminescent cAMP assay, read-out: Human TGR5 Lum. cAMP Activity (EC50). The gist of the method:
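EC50 values come from luminescent enzyme-complementation cAMP detection, read after overnight incubation. Beforehand, hTGR5-expressing CHO-K1 cells with IBMX and anti-cAMP antibody were exposed 1 h at room temperature to serially diluted (half-log) compounds.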

Data set [1] in a line: Pharmacokinetic profile in mice after oral gavage. The following applies: mouse; fasted male Hilltop mice, 10 mg/kg oral gavage, plasma; read-out: Cmax. In kind it is in vivo, mouse. The method in brief: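 Plasma exposure (Cmax, AUC) by non-compartmental analysis of LC-MS/MS data, orbital blood taken at 0, 0.25, 0.5, 1, 2 and 4 h, each value averaging three mice. Dosing: 10 mg/kg oral gavage to overnight-fasted male Hilltop mice (8 weeks), vehicle PEG400/CMC/Tween-80.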

As usually defined, the EC50 is the midpoint of the concentration-response curve. For orientation: Cmax means the maximum level reached in the sampled fluid or tissue. For `N#Cc1ccc(CCNC(=O)[C@@H]2CCN2c2cc(N3CCC(CCCC(=O)NC[C@@H](O)[C@H](O)[C@@H](O)[C@@H](O)CO)CC3)nc(C(F)(F)F)n2)cc1` [Compound 260, (S)—N-(4-cyanophenethyl)-1-(6-(4-(4-oxo-4-(((2R,3S,4S,5S)-2,3,4,5,6-pentahydroxyhexyl)amino)butyl)piperidin-1-yl)-2-(trifluoromethyl)pyrimidin-4-yl)azetidine-2-carboxamide], the EC50 on human TGR5 receptor is below 100 nM. Moreover, the Cmax in data set [1] was 3.2 ng/mL.
Take `N#CCCN1CCN(c2cc(N3CCC[C@H]3C(=O)NCCc3ccc(C#N)cc3)nc(C(F)(F)F)n2)CC1` [Compound 32]: the EC50 on human TGR5 receptor was below 100 nM. The maximum concentration (Cmax) in data set [1] is 1350 ng/mL.
For `N#Cc1ccc(CCNC(=O)[C@@H]2CCCN2c2cc(N3CCC(CCCC(=O)NCCS(=O)(=O)O)CC3)cc(C(F)(F)F)n2)cc1` [Compound 199, (S)-2-(4-(1-(2-(2-((4-cyanophenethyl)carbamoyl)pyrrolidin-1-yl)-6-(trifluoromethyl)pyridin-4-yl)piperidin-4-yl)butanamido)ethanesulfonic acid] the same measures were below 100 nM and 1 ng/mL.
Taken in the same sequence, the figures for `CS(=O)(=O)NCCOCCNC(=O)NCCC1CCN(c2cc(N3CC[C@H]3C(=O)NCCc3ccc(C#N)cc3)nc(C(F)(F)F)n2)CC1` [Compound 292, (S)-N-(4-cyanophenethyl)-1-(6-(4-(2-(3-(2-(2-(methylsulfonylamino)-ethoxy)ethyl)ureido)ethyl)piperidin-1-yl)-2-(trifluoromethyl)pyrimidin-4-yl)azetidine-2-carboxamide] were below 100 nM and 1.3 ng/mL.
Regarding `N#Cc1ccc(CCNC(=O)[C@@H]2CCCN2c2cc(N3CCC(CCCC(=O)O)CC3)nc(C(F)(F)F)n2)cc1` [Compound 29], the EC50 on human TGR5 receptor was below 100 nM. For the same compound, the Cmax in data set [1] was found to be 55 ng/mL.
Taken in the same sequence, the figures for `N#Cc1ccc(CCNC(=O)[C@@H]2CCCN2c2cc(N3CCC(CCCC(=O)NCCS(=O)(=O)NCC(=O)O)CC3)nc(C(F)(F)F)n2)cc1` [Compound 115, (S)-2-(2-(4-(1-(6-(2-((4-cyanophenethyl)carbamoyl)pyrrolidin-1-yl)-2-(trifluoromethyl)pyrimidin-4-yl)piperidin-4-yl)butanamido)-ethylsulfonamido)acetic acid] were below 100 nM and 2.7 ng/mL.
For `N#Cc1ccc(CCNC(=O)[C@@H]2CCCN2c2cc(N3CCC(CCC(=O)O)CC3)nc(C(F)(F)F)n2)cc1` [Compound 28] the same measures were 100 to 999 nM and 75 ng/mL.
For `N#Cc1ccc(CCNC(=O)[C@@H]2CCCN2c2cc(N3CCC(CCNc4c(NCCS(=O)(=O)O)c(=O)c4=O)CC3)nc(C(F)(F)F)n2)cc1` [Compound 367, (S)-2-((2-((2-(1-(6-(2-((4-cyanophenethyl)carbamoyl)pyrrolidin-1-yl)-2-(trifluoromethyl)pyrimidin-4-yl)piperidin-4-yl)ethyl)amino)-3,4-dioxocyclobut-1-en-1-yl)amino)ethanesulfonic acid] the same measures were below 100 nM and 1.5 ng/mL.
Take `N#Cc1ccc(CCNC(=O)[C@@H]2CCCN2c2cc(N3CCC(CCCC(=O)NCCNc4ncc(C(=O)NCCS(=O)(=O)O)cn4)CC3)nc(C(F)(F)F)n2)cc1` [Compound 112, (S)-2-(2-((2-(4-(1-(6-(2-((4-cyanophenethyl)carbamoyl)pyrrolidin-1-yl)-2-(trifluoromethyl)pyrimidin-4-yl)piperidin-4-yl)butanamido)ethyl)amino)-pyrimidine-5-carboxamido)ethanesulfonic acid]: the EC50 at human TGR5 receptor is below 100 nM. Moreover, in data set [1], the Cmax came out at 1.1 ng/mL.
As to `N#Cc1ccc(CCNC(=O)[C@@H]2CCCN2c2cc(N3CCC(CCC(=O)NCCS(=O)(=O)O)CC3)nc(C(F)(F)F)n2)cc1` [Compound 56, (S)-2-(3-(1-(6-(2-((4-cyanophenethyl)carbamoyl)pyrrolidin-1-yl)-2-(trifluoromethyl)pyrimidin-4-yl)piperidin-4-yl)propanamido)ethanesulfonic acid], the EC50 at human TGR5 receptor was below 100 nM. Besides, in data set [1], the Cmax came to 14 ng/mL.
Taken in the same sequence, the figures for `N#Cc1ccc(CCNC(=O)[C@@H]2CCCN2c2cc(N3CCC(OCC#CCS(=O)(=O)O)CC3)nc(C(F)(F)F)n2)cc1` [Compound 134, (S)-4-((1-(6-(2-((4-cyanophenethyl)carbamoyl)pyrrolidin-1-yl)-2-(trifluoromethyl)pyrimidin-4-yl)piperidin-4-yl)oxy)but-2-yne-1-sulfonic acid] were below 100 nM and 22 ng/mL.
Taken in the same sequence, the figures for `N#Cc1ccc(CCNC(=O)[C@@H]2CCN2c2cc(N3CCC(CCNC(=N)N)CC3)nc(C(F)(F)F)n2)cc1` [Compound 285, (S)-N-(4-cyanophenethyl)-1-(6-(4-(2-guanidinoethyl)piperidin-1-yl)-2-(trifluoromethyl)pyrimidin-4-yl)azetidine-2-carboxamide] were below 100 nM and 0.9 ng/mL.
`N#Cc1ccc(CCNC(=O)[C@@H]2CCN2c2cc(N3CCC(CCCC(=O)NCS(=O)(=O)O)CC3)nc(C(F)(F)F)n2)cc1` [Compound 250, (S)-(4-(1-(6-(2-((4-cyanophenethyl)carbamoyl)azetidin-1-yl)-2-(trifluoromethyl)pyrimidin-4-yl)piperidin-4-yl)butanamido)methanesulfonic acid]: the EC50 at human TGR5 receptor was below 100 nM. Further, the Cmax in data set [1] was 7.6 ng/mL.
Taken in the same sequence, the figures for `COc1cc(C(F)(F)F)ccc1CCNC(=O)[C@@H]1CCCN1c1cc(N2CCC(CCCC(=O)NCCS(=O)(=O)O)CC2)nc(C(F)(F)F)n1` [Compound 57, (S)-2-(4-(1-(6-(2-((2-methoxy-4-(trifluoromethyl)phenethyl)carbamoyl)-pyrrolidin-1-yl)-2-(trifluoromethyl)-pyrimidin-4-yl)piperidin-4-yl)butanamido)ethanesulfonic acid] were below 100 nM and 13 ng/mL.
In the case of `O=C(O)CCC1CCN(c2cc(N3CC[C@H]3C(=O)NCCc3ccc(C(F)(F)F)cc3)nc(C(F)(F)F)n2)CC1` [Compound 232, (S)-3-(1-(2-(trifluoromethyl)-6-(2-((4-(trifluoromethyl)phenethyl)carbamoyl)azetidin-1-yl)pyrimidin-4-yl)piperidin-4-yl)propanoic acid], the EC50 on human TGR5 receptor is below 100 nM. Further, the Cmax in data set [1] is 64 ng/mL.
For `N#Cc1ccc(CCNC(=O)[C@@H]2CCN2c2cc(N3CCC(CCCC(=O)NCP(=O)(O)O)CC3)nc(C(F)(F)F)n2)cc1` [Compound 362, (S)-((4-(1-(6-(2-((4-cyanophenethyl)carbamoyl)azetidin-1-yl)-2-(trifluoromethyl)pyrimidin-4-yl)piperidin-4-yl)butanamido)methyl)phosphonic acid] the same measures were below 100 nM and 36 ng/mL.
Take `N#Cc1ccc(CCNC(=O)[C@@H]2CCN2c2cc(N3CCC(CCNS(=O)(=O)CCNC(=O)[C@@H](N)CS(=O)(=O)O)CC3)nc(C(F)(F)F)n2)cc1` [Compound 363, (R)-2-amino-3-((2-(N-(2-(1-(6-((S)-2-((4-cyanophenethyl)carbamoyl)azetidin-1-yl)-2-(trifluoromethyl)pyrimidin-4-yl)piperidin-4-yl)ethyl)sulfamoyl)ethyl)amino)-3-oxopropane-1-sulfonic acid]: the EC50 at human TGR5 receptor was below 100 nM. Besides, the Cmax in data set [1] was found to be 0.5 ng/mL.
For `N#Cc1ccc(CCNC(=O)[C@@H]2CCN2c2cc(N3CCC(CCNC(=O)NCS(=O)(=O)O)CC3)nc(C(F)(F)F)n2)cc1` [Compound 270, (S)-(3-(2-(1-(6-(2-((4-cyanophenethyl)carbamoyl)azetidin-1-yl)-2-(trifluoromethyl)pyrimidin-4-yl)piperidin-4-yl)ethyl)ureido)-methanesulfonic acid] the same measures were below 100 nM and 5.4 ng/mL.
Take `N#Cc1ccc(CCNC(=O)[C@@H]2CCN2c2cc(N3CCC(CCNC(=O)NCCOCCNC(=O)CS(=O)(=O)O)CC3)nc(C(F)(F)F)n2)cc1` [Compound 356, (S)-1-(1-(6-(2-((4-cyanophenethyl)carbamoyl)azetidin-1-yl)-2-(trifluoromethyl)pyrimidin-4-yl)piperidin-4-yl)-4,12-dioxo-8-oxa-3,5,11-triazatridecane-13-sulfonic acid]: the concentration giving a half-maximal response (EC50) at human TGR5 receptor was below 100 nM. Besides, the Cmax in data set [1] came to 8.4 ng/mL.
For `N#Cc1ccc(CCNC(=O)[C@@H]2CCCN2c2cc(N3CCC(CCNc4c(NCCC(=O)O)c(=O)c4=O)CC3)nc(C(F)(F)F)n2)cc1` [Compound 368, (S)-3-((2-((2-(1-(6-(2-((4-cyanophenethyl)carbamoyl)pyrrolidin-1-yl)-2-(trifluoromethyl)pyrimidin-4-yl)piperidin-4-yl)ethyl)amino)-3,4-dioxocyclobut-1-en-1-yl)amino)propanoic acid], the EC50 at human TGR5 receptor was below 100 nM. For the same compound, the Cmax in data set [1] turned out to be 2.5 ng/mL.
Taken in the same sequence, the figures for `N#Cc1ccc(CCNC(=O)[C@@H]2CCCN2c2cc(N3CCC(CCNC(=O)NCCC(=O)NCCS(=O)(=O)O)CC3)nc(C(F)(F)F)n2)cc1` [Compound 113, (S)-2-(3-(3-(2-(1-(6-(2-((4-cyanophenethyl)carbamoyl)pyrrolidin-1-yl)-2-(trifluromethyl)pyrimidin-4-yl)piperidin-4-yl)ethyl)ureido)-propanamido)-ethanesulfonic acid] were below 100 nM and 0.13 ng/mL.
